Columns and labels:
Assay type in all cases: biochemical
legumain = experiment: Protease activity in S. mansoni adult extract, Cbz–Ala–Ala–Asn–AMC; conditions: 1 μM gallinamide A, substrate Cbz–Ala–Ala–Asn–AMC, in the presence of E-64, mean ± SD
Description: (§1) We investigated whether gallinamide A inhibits the activity of the major proteases associated with proteolytic digestion in the adult schistosome gut. The digestive protease network includes the cysteine proteases cathepsins B, C, L from clan CA and legumain from clan CD, and an aspartic protease cathepsin D from clan AA.[11],[12] Their respective activities can be measured in protein extracts of S. mansoni using a kinetic assay with specific fluorogenic substrates. In addition, these activities can be attributed to particular proteases based on sensitivity to selective inhibitors[30]−[32] (Table 1). Accordingly, we exposed worm extracts to gallinamide A and analyzed the individual protease activities. Gallinamide A inhibited both the carboxydipeptidase (98%) and endopeptidase activities (94%) of cathepsin B as measured with the respective substrates, Abz–Phe–Arg–Val–Nph[15] and Cbz–Arg–Arg–AMC[33],[34] (Table 1). The activity measured with the Cbz–Phe–Arg–AMC substrate,[11],[13],[16],[33],[35] which can be cleaved by both cathepsins B and L, was inhibited by gallinamide A to a lesser extent (72%). […]
(§2) Proteolytic activities in S. mansoni adult extracts were measured in a continuous kinetic assay using the following peptidyl fluorogenic substrates (Bachem) or internally quenched FRET substrates (IOCB): 50 μM Cbz–Phe–Arg–AMC for cathepsins B and L,[13],[15] […]

cathepsin D = experiment: Protease activity in S. mansoni adult extract, FRET substrate; conditions: 1 μM gallinamide A, substrate Abz–Lys–Pro–Ala–Glu–Phe–Nph–Ala–Leu, in the presence of E-64, mean ± SD
Description: as §1, §2

cathepsin C = target: T1, cathepsin C (Schistosoma mansoni, UniProt Q26563); experiment: Protease activity in S. mansoni adult extract, Gly–Arg–AMC; conditions: 1 μM gallinamide A, exopeptidase (aminodipeptidase), substrate Gly–Arg–AMC, mean ± SD
T1 construct: from tissue; host or cells: soluble protein extract of mixed sex S. mansoni adults
T1 sequence (Q26563 218-454): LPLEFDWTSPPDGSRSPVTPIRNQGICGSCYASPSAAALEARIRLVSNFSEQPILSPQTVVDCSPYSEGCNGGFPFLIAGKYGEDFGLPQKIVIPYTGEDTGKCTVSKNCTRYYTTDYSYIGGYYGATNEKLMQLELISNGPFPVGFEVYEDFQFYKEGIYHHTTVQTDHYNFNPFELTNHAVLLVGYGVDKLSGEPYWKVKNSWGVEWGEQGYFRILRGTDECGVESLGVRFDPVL
Description: as §1, §2

cathepsins B and L = experiment: Protease activity in S. mansoni adult extract, Cbz–Phe–Arg–AMC; conditions: 1 μM gallinamide A, endopeptidase, substrate Cbz–Phe–Arg–AMC, mean ± SD
Description: as §1, §2

## CC[C@H](C)[C@@H](C(=O)O[C@@H](CC(C)C)C(=O)N[C@@H](CC(C)C)C(=O)N[C@@H](C)/C=C/C(=O)N1C(=O)C=C(OC)[C@@H]1C)N(C)C [gallinamide A]
legumain
  inhibition (%): < 10%
legumain; listed as Gallinamide A
  inhibition (%): 8.2 ± 0.1%
Cathepsin D
  inhibition (%): < 10%
Cathepsin D; listed as Gallinamide A
  inhibition (%): 0.01 ± 1.54%
Cathepsin C
  inhibition (%): < 10%
Cathepsin C; listed as Gallinamide A
  inhibition (%): 2.8 ± 1.9%
Cathepsins B and L
  inhibition (%): 72%
Cathepsins B and L; listed as Gallinamide A
  inhibition (%): 71.9 ± 2.0%

Reference: article PMC11184554, “Nature-Inspired Gallinamides Are Potent Antischistosomal Agents: Inhibition of the Cathepsin B1 Protease Target and Binding Mode Analysis” (ACS Infectious Diseases, 2024)
